What was measured:
[1] = test system: A2780 cells; assay: MTT cytotoxicity assay, 72 h; type: cell-based, human; settings: A2780, p53 wt; read-out: IC50 (mean ± SE) after 72 h continuous exposure
How it was run: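 Seeding 1000 cells/well (L1210) or 2000-25000 cells/well (others); 24 h pre-growth; inhibitor exposure 72 h, triplicate; MTT read-out at 540 nm; IC50 = concentration giving 50% growth inhibition vs day 0/day 3 OD difference.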

[2] = test system: L1210 cells; assay: Cell cycle analysis, flow cytometry of propidium iodide stained cells; type: cell-based, murine; settings: for Cell Cycle Distribution, G1 / Cell Cycle Distribution, G2 + M / Cell Cycle Distribution, S / Cell Cycle Distribution, sub G1 / Cell cycle remark: 12 h; for Cell cycle response: L1210, 12 h exposure
Procedure: The cells are fixed in 70% ethanol and stored at −20° C. until analysis is performed (1-2 weeks). After fixing, the cells are pelleted and incubated in PBS containing propidium iodide ([…]) and RNase A (200 mg/ml) for at least 30 min at room temperature. The samples (2×10^4 events) are analysed using a Becton Dickson FACScan, fluorescence is collected in fluorescence detector 2 (FL2), filter 575/30 nm band pass. Cell cycle distribution is assessed using Cell Quest software (Becton Dickson).
The ability of the protein phosphatase inhibitors to abrogate the G1 or G2 checkpoint of the cell cycle may be determined by cell cycle analysis using flow cytometry. Briefly, asynchronous cell cultures are harvested 18 h after 6 Gy irradiation and/or 12 h incubation with the protein phosphatase inhibitor. Depending upon the p53 status of the cell line, radiation treatment alone will induce arrest in either G1 and/or G2 phase of the cell cycle.
Data shown in Table 2 and FIG. 4 show the cell cycle response of L1210, HL60, HT29 and HCT116 cells to cantharidin and the new cantharidin analogues MK-2 and MK-4 after 12 h exposure. In summary, cantharidin and MK-2 produced a similar response and induced G2 arrest in all four cell lines tested. […] HL60 and HCT116 cells. […] The magnitude of the cell cycle arrest induced by these drugs directly correlated with their cytotoxicity in the respective cell lines. […] The cytotoxicity of the […]

[3] = test system: HCT116 cells; assay: Combination studies, Median Effect Method (MTT); type: cell-based, human; settings: simultaneous
Procedure: (§1) Those protein phosphatase inhibitors which show abrogation of either the G1 or G2 checkpoint will then be exploited in combination studies with either radiation exposure or chemotherapy drugs incubation. The MTT (3-[4,5-dimethylthiazol-2-yl]2,5-diphenyl-tetrazolium bromide) assay is used to determine whether a synergistic, antagonistic or additive effect is induced. The Median Effect method is adopted to mathematically determine the optimal combination index of the treatments chosen (Chou and Talalay, 1984). This method has been extensively used to investigate the cytotoxicity of various drug combinations including cisplatin and D1694 (Ackland et al 1996; 1998). A combination index value less than 1 indicates synergism, a value equal to 1 indicates additivity and a value greater than one indicates antagonism.
(§2) The cell lines listed above are exposed continuously to cisplatin and the phosphatase inhibitor in various drug ratio combinations for 72 h and then assayed for cytotoxicity; Similarly, the cells are exposed to 8 Gy of radiation and incubated with the phosphatase inhibitor and assessed for cytotoxicity at 72 h.
(§3) This method tests the cytotoxicity of various drug combinations from which a combination index can be calculated. A value of greater than one indicated antagonism, a value equal to 1 indicates additivity, while a value less than one indicates synergism. The HT29 and HCT116 cell lines were chosen as they have differing p53 status and they represent the tumour types that responded the greatest to cantharidin and its analogues.

[4] = test system: HT29 cells; assay: Combination studies, Median Effect Method (MTT); type: cell-based, human; settings: simultaneous
Procedure: as §1, §2, §3

With O=C1OC(=O)C2C3C=CC(O3)C12 (stereo not drawn) [MK-2] the IC50 [1] was 157 ± 9 µM, the “Cell Cycle Distribution, G1” value ([2]; L1210, 50 μM) was 42.7 percentage of total and the “Cell Cycle Distribution, G2 + M” value ([2]; L1210, 50 μM) was 31.7 percentage of total. The “Cell Cycle Distribution, S” value ([2]; L1210, 50 μM) was 26.2 percentage of total, the “Cell Cycle Distribution, sub G1” value ([2]; L1210, 50 μM) was 0.3 percentage of total and the “Cell Cycle Distribution, G1” value ([2]; L1210, 100 μM) was 45.2 percentage of total. For the same compound, the “Cell Cycle Distribution, G2 + M” value ([2]; L1210, 100 μM) was 32.4 percentage of total, the “Cell Cycle Distribution, S” value ([2]; L1210, 100 μM) was 22.4 percentage of total and the “Cell Cycle Distribution, sub G1” value ([2]; L1210, 100 μM) was 0.6 percentage of total. For the same compound, the “Cell Cycle Distribution, G1” value ([2]; L1210, 250 μM) was 46.7 percentage of total, the “Cell Cycle Distribution, G2 + M” value ([2]; L1210, 250 μM) was 36.7 percentage of total and the “Cell Cycle Distribution, S” value ([2]; L1210, 250 μM) was 14.3 percentage of total. For the same compound, the “Cell Cycle Distribution, sub G1” value ([2]; L1210, 250 μM) was 2.4 percentage of total, the “Cell Cycle Distribution, G1” value ([2]; L1210, 500 μM) was 26.3 percentage of total and the “Cell Cycle Distribution, G2 + M” value ([2]; L1210, 500 μM) was 60.0 percentage of total. For the same compound, the “Cell Cycle Distribution, S” value ([2]; L1210, 500 μM) was 10.1 percentage of total, the “Cell Cycle Distribution, sub G1” value ([2]; L1210, 500 μM) was 3.9 percentage of total and the Cell cycle remark ([2]; L1210, 500 μM) was “G2 arrest”. The “Cell cycle response” value [2] was “G2 arrest”.

For C[C@@]12C(=O)OC(=O)[C@]1(C)[C@H]1CC[C@@H]2O1 [Cantharidin, exo.exo-2.3-dimethyl-7-oxobicyclo[2.2.1]heptane-2,3-dicarboxylic acid anhydride], the “Cell Cycle Distribution, G1” value ([2]; L1210, 1 μM) was 45.8 percentage of total, the “Cell Cycle Distribution, G2 + M” value ([2]; L1210, 1 μM) was 21.6 percentage of total and the “Cell Cycle Distribution, S” value ([2]; L1210, 1 μM) was 33.7 percentage of total. For the same compound, the “Cell Cycle Distribution, sub G1” value ([2]; L1210, 1 μM) was 0.5 percentage of total, the “Cell Cycle Distribution, G1” value ([2]; L1210, 5 μM) was 46.5 percentage of total and the “Cell Cycle Distribution, G2 + M” value ([2]; L1210, 5 μM) was 21.9 percentage of total. For the same compound, the “Cell Cycle Distribution, S” value ([2]; L1210, 5 μM) was 32.6 percentage of total, the “Cell Cycle Distribution, sub G1” value ([2]; L1210, 5 μM) was 0.6 percentage of total and the “Cell Cycle Distribution, G1” value ([2]; L1210, 10 μM) was 49.1 percentage of total. The “Cell Cycle Distribution, G2 + M” value ([2]; L1210, 10 μM) was 18.9 percentage of total, the “Cell Cycle Distribution, S” value ([2]; L1210, 10 μM) was 33.0 percentage of total and the “Cell Cycle Distribution, sub G1” value ([2]; L1210, 10 μM) was 0.5 percentage of total. The “Cell Cycle Distribution, G1” value ([2]; L1210, 50 μM) was 22.0 percentage of total, the “Cell Cycle Distribution, G2 + M” value ([2]; L1210, 50 μM) was 50.6 percentage of total and the “Cell Cycle Distribution, S” value ([2]; L1210, 50 μM) was 27.8 percentage of total. For the same compound, the “Cell Cycle Distribution, sub G1” value ([2]; L1210, 50 μM) was 1.9 percentage of total, the Cell cycle remark ([2]; L1210, 50 μM) was “G2 arrest” and the “Cell cycle response” value [2] was “G2 arrest”.

In the case of O=C1OC(O)C2C3CCC(O3)C12 (stereo not drawn) [MK-4], the IC50 [1] is reported as 333 ± 55 µM, the “Cell Cycle Distribution, G1” value ([2]; L1210, 50 μM) is reported as 42.0 percentage of total and the “Cell Cycle Distribution, G2 + M” value ([2]; L1210, 50 μM) is reported as 32.0 percentage of total. The “Cell Cycle Distribution, S” value ([2]; L1210, 50 μM) was 26.9 percentage of total, the “Cell Cycle Distribution, sub G1” value ([2]; L1210, 50 μM) was 0.5 percentage of total and the “Cell Cycle Distribution, G1” value ([2]; L1210, 100 μM) was 43.2 percentage of total. The “Cell Cycle Distribution, G2 + M” value ([2]; L1210, 100 μM) was 32.5 percentage of total, the “Cell Cycle Distribution, S” value ([2]; L1210, 100 μM) was 25.4 percentage of total and the “Cell Cycle Distribution, sub G1” value ([2]; L1210, 100 μM) was 0.4 percentage of total. For the same compound, the “Cell Cycle Distribution, G1” value ([2]; L1210, 250 μM) was 45.7 percentage of total, the “Cell Cycle Distribution, G2 + M” value ([2]; L1210, 250 μM) was 30.5 percentage of total and the “Cell Cycle Distribution, S” value ([2]; L1210, 250 μM) was 24.6 percentage of total. The “Cell Cycle Distribution, sub G1” value ([2]; L1210, 250 μM) was 0.5 percentage of total, the “Cell Cycle Distribution, G1” value ([2]; L1210, 500 μM) was 47.5 percentage of total and the “Cell Cycle Distribution, G2 + M” value ([2]; L1210, 500 μM) was 33.9 percentage of total. For the same compound, the “Cell Cycle Distribution, S” value ([2]; L1210, 500 μM) was 18.6 percentage of total, the “Cell Cycle Distribution, sub G1” value ([2]; L1210, 500 μM) was 1.1 percentage of total and the Cell cycle remark ([2]; L1210, 500 μM) was “Slight Δ”. For the same compound, the “Cell cycle response” value [2] was “G2 arrest”, the “Combination response with taxotere” value [3] was “synergistic” and the “Combination response with cisplatin” value ([3]; molar ratios 1:1, 10:1, 1:10) was “additive”. The “Combination response with cisplatin” value ([4]; molar ratios 1:1, 10:1, 1:10) was “additive” and the “Combination response with taxotere” value ([4]; ratios 1:10, 1:100, 1:1000 (Taxotere: MK-4)) was “additive”.

Source: patent publication US20060030616A1, “Anhydride modified cantharidin analogues useful in the treatment of cancer” (priority 1998, published 2006)
